Drawing on patent US8772299B2, “Phenyl piperazine compounds, pharmaceutical composition including the same and use thereof” (SK Biopharmaceuticals Co., Ltd., priority 2008, dated 2014), this text covers inhibition for 28 molecules.

Molecules are shown by their SMILES. Counter-ions that a name gives are not always drawn.

The target in the assay is T1, Serotonin 1A (5-HT1A) receptor (Rattus norvegicus, UniProt P19327).
T1 construct: The cortex tissue were homogenized in 30 volumes of ice-cold 50 mM Tris-HCl buffer; from tissue; host or cells: Sprague-Dawley rat brain cortex membranes
T1 sequence (P19327 1-422): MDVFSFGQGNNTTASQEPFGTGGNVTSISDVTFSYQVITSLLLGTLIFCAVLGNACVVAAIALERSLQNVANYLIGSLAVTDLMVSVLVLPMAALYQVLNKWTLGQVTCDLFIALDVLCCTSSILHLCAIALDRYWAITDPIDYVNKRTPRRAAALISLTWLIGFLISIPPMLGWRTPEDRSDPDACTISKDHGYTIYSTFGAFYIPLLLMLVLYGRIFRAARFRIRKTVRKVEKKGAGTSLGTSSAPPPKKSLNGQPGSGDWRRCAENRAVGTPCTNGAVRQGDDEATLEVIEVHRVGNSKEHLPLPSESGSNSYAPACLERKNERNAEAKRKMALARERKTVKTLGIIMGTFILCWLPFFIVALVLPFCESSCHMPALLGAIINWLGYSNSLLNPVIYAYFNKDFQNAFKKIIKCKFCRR
In words: Serotonin 1A (5-HT1A) receptor inhibition assay, [3H]8-OH-DPAT binding to rat cortex membranes. Also noted: species or system Sprague-Dawley (SD) rats. Particulars: 10 nM test compound; 0.92 nM [3H]8-OH-DPAT; rat cortex homogenate; 60 min at 25° C. The procedure:
The method to test the ability of compounds to inhibit serotonin 1A(5-HT1A) receptors was using Hall. et al., J Neuro Chem., 1985, 44, p 1685-1696 with modification.
The Sprague-Dawley (SD) rats were killed by decapitation and their brains rapidly removed at 4° C. The cortex tissue were homogenized in 30 volumes of ice-cold 50 mM Tris-HCl buffer (pH7.4) using an ultra-turrax T8 and centrifuged at 48,000 g for 20 min. The supernatant was discarded and the pellet washed twice by resuspension in 20 volumes Tris-HCl and centrifugation, homogenized in 20 volumes Tris-HCl, and incubated at 37° C. for 10 min. Membranes were than collected by centrifugation and washed twice before final resuspension in 10 volumes of 50 mM Tris-HCl, pH7.4.
For binding assays, the incubation medium consisted of 162.5 ug of tissue homogenate, 0.92 nM of [3H]8-OH-DPAT and vehicle or 10 uM of 5-HT or 10 nM of test compounds per well. 5-HT and test compounds were dissolved in distilled water and incubation medium was 50 mM Tris(pH7.4 at room temperature). The assay plates (96 well) were incubated for 60 min at 25° C. The reaction was terminated by rapid filtration using a Tomtec harvester, through GF/C glassfibre filter with 5 times washes of Tris buffer. The radioactivity retained on the filters was counted by scintillation spectroscopy (MicroBeta TriLux, Wallac). The tests were triplicates. Percent inhibition was calculated as below equation.
Total binding is the value of vehicle treated group and specific binding is the values that deduct non-specific binding (i.e. the value of non-specific ligand, 5-HT).
Regarding `COc1ccccc1N1CCN(CCCCOc2ccc(CNc3cc(C)on3)cc2)CC1` [Example 45, (4-{4-[4-(2-Methoxy-phenyl)-piperazin-1-yl]-butoxy}-benzyl)-(5-methyl-isoxazol-3-yl)-amine], 0.01 µM produced 73.8% inhibition.

On to `COc1ccccc1N1CCN(CCCCOc2ccc(CNc3cc(C)no3)cc2)CC1` [Example 46, (4-{4-[4-(2-methoxy-phenyl)-piperazin-1-yl]-butoxy}-benzyl)-(3-methyl-isoxazol-5-yl)-amine], for which the inhibition at 0.01 µM worked out at 64.6%.

For the molecule `Cc1nnnn1Cc1ccc(OCCCCN2CCN(c3cccc(Cl)c3Cl)CC2)cc1` [Example 37, 1-(2,3-Dichloro-phenyl)-4-{4-[4-(5-methyl-tetrazol-1-ylmethyl)-phenoxy]-butyl}-piperazine], the inhibition at 0.01 µM was determined as 24.8%.

Take `COc1ccccc1N1CCN(CCCCOc2ccc(Cn3ncnn3)cc2)CC1` [Example 4, 1-(2-methoxy-phenyl)-4-[4-(4-tetrazol-2-ylmethyl-phenoxy)-butyl]-piperazine]: the inhibition at 0.01 µM worked out at 75.9%.

Consider `COc1ccccc1N1CCN(CCCCOc2ccc(Cn3nnnc3-c3ccccc3)cc2)CC1` [Example 16, 1-(2-methoxy-phenyl)-4-{4-[4-(5-phenyl-tetrazol-1-ylmethyl)-phenoxy]-butyl}-piperazine], for which the inhibition at 0.01 µM is 62.5%.

`COc1ccccc1N1CCN(CCCCOc2ccc(CNc3nncs3)cc2)CC1` [Example 43, (4-{4-[4-(2-Methoxy-phenyl)-piperazin-1-yl]-butoxy}-benzyl)-[1,3,4]thiadiazol-2-yl-amine] gave an inhibition at 0.01 µM of 95.6%.

Turning to `COc1ccccc1N1CCN(CCCCOc2ccc(Cn3ncc4ccccc43)cc2)CC1` [Example 13, 1-(4-{4-[4-(2-Methoxy-phenyl)-piperazin-1-yl]-butoxy}-benzyl)-1H-indazole], testing at 0.01 µM gave an inhibition of 50.4%.

Take `Clc1ccccc1N1CCN(CCCCOc2ccc(Cn3ccnn3)cc2)CC1` [Example 42, 1-(2-chloro-phenyl)-4-[4-(4-[1,2,3]triazol-1-ylmethyl-phenoxy)-butyl]-piperazine]: at 0.01 µM the inhibition was 36.2%.

As for `Clc1ccccc1N1CCN(CCCCOc2ccc(Cn3ncnn3)cc2)CC1` [Example 31, 1-(2-chloro-phenyl)-4-[4-(4-tetrazol-2-ylmethyl-phenoxy)-butyl]-piperazine], testing at 0.01 µM gave an inhibition of 30.3%.

`COc1ccccc1N1CCN(CCCCOc2ccc(Cn3cnc4ccccc43)cc2)CC1` [Example 9, 1-(4-{4-[4-(2-methoxy-phenyl)-piperazin-1-yl]-butoxy}-benzyl)-1H-benzoimidazole] had an inhibition at 0.01 µM of 52.2%.

`COc1ccccc1N1CCN(CCCCOc2ccc(CCn3nnnc3C)cc2)CC1` [Example 53, 1-(2-Methoxy-phenyl)-4-(4-{4-[2-(5-methyl-tetrazol-1-yl)-ethyl]-phenoxy}-butyl)-piperazine] yielded an inhibition at 0.01 µM of 46%.

Regarding `COc1ccccc1N1CCN(CCCCOc2ccc(Cn3nnc(C)n3)cc2)CC1` [Example 17, 1-(2-methoxy-phenyl)-4-{4-[4-(5-methyl-tetrazol-2-ylmethyl)-phenoxy]-butyl}-piperazine], 0.01 µM produced 56.4% inhibition.

`Clc1ccccc1N1CCN(CCCCOc2ccc(Cn3nccn3)cc2)CC1` [Example 56, 1-(2-chloro-phenyl)-4-[4-(4-[1,2,3]triazol-2-ylmethyl-phenoxy)-butyl]-piperazine] returned an inhibition at 0.01 µM of 24.3%.

The molecule `COc1ccccc1N1CCN(CCCCOc2cccc(Cn3nnnc3C)c2)CC1` [Example 27, 1-(2-methoxy-phenyl)-4-{4-[3-(5-methyl-tetrazol-1-ylmethyl)-phenoxy]-butyl}-piperazine] gave an inhibition at 0.01 µM of 40.9%.

In turn, `COc1ccccc1N1CCN(CCCCOc2cccc(Cn3ccnn3)c2)CC1` [Example 25, 1-(2-Methoxy-phenyl)-4-[4-(3-[1,2,3]triazol-1-ylmethyl-phenoxy)-butyl]-piperazine] registered an inhibition at 0.01 µM of 45.2%.

For `COc1ccccc1N1CCN(CCCCOc2ccc(Cn3nnc(-c4ccccc4)n3)cc2)CC1` [Example 15, 1-(2-methoxy-phenyl)-4-{4-[4-(5-phenyl-tetrazol-2-ylmethyl)-phenoxy]-butyl}-piperazine], testing at 0.01 µM gave an inhibition of 23.5%.

Take `COc1ccccc1N1CCN(CCCCOc2ccc(Cn3nnc4ccccc43)cc2)CC1` [Example 14, 1-(4-{4-[4-(2-Methoxy-phenyl)-piperazin-1-yl]-butoxy}-benzyl)-1H-benzotriazole]: at 0.01 µM the inhibition was 51.1%.

As for `COc1ccccc1N1CCN(CCCCOc2ccc(Cn3ccnc3C)cc2)CC1` [Example 10, 1-(2-Methoxy-phenyl)-4-{4-[4-(2-methyl-imidazol-1-ylmethyl)-phenoxy]-butyl}-piperazine], 0.01 µM produced 71.8% inhibition.

`Clc1ccccc1N1CCN(CCCCOc2ccc(Cn3cncn3)cc2)CC1` [Example 23, 1-(2-chloro-phenyl)-4-[4-(4-[1,2,4]triazol-1-ylmethyl-phenoxy)-butyl]-piperazine] registered an inhibition at 0.01 µM of 17.2%.

`Clc1cccc(N2CCN(CCCCOc3ccc(Cn4ccnn4)cc3)CC2)c1Cl` [Example 44, 1-(2,3-dichloro-phenyl)-4-[4-(4-[1,2,3]triazol-1-ylmethyl-phenoxy)-butyl]-piperazine] returned an inhibition at 0.01 µM of 17.4%.

For the molecule `CN1CCN(Cc2ccc(OCCCCN3CCN(c4ccccc4Cl)CC3)cc2)CC1` [Example 35], at 0.01 µM the inhibition was 73.3%.

Take `Cc1nnn(Cc2ccc(OCCCCN3CCN(c4cccc(Cl)c4Cl)CC3)cc2)n1` [Example 38, 1-(2,3-Dichloro-phenyl)-4-{4-[4-(5-methyl-tetrazol-2-ylmethyl)-phenoxy]-butyl}-piperazine]: 0.01 µM produced 29.4% inhibition.

As for `COc1ccccc1N1CCN(CCCCOc2ccc(Cn3cnc(Cl)c3Cl)cc2)CC1` [Example 30, 1-{4-[4-(4,5-dichloro-imidazol-1-ylmethyl)-phenoxy]-butyl}-4-(2-methoxy-phenyl)-piperazine], at 0.01 µM the inhibition was 38.3%.

The molecule `COc1ccccc1N1CCN(CCCCOc2ccc(Cn3cnnn3)cc2)CC1` [Example 3, 1-(2-methoxy-phenyl)-4-[4-(4-tetrazol-1-ylmethyl-phenoxy)-butyl]-piperazine] came in with an inhibition at 0.01 µM of 77.8%.

`COc1ccccc1N1CCN(CCCCOc2ccc(CNc3nccs3)cc2)CC1` [Example 22, (4-{4-[4-(2-methoxy-phenyl)-piperazin-1-yl]-butoxy}-benzyl)-thiazol-2-yl-amine]: 0.01 µM produced 53.4% inhibition.

`COc1ccccc1N1CCN(CCCCOc2cccc(CN3CCOCC3)c2)CC1` [Example 29, 4-(3-{4-[4-(2-methoxy-phenyl)-piperazin-1-yl]-butoxy}-benzyl)-morpholine] returned an inhibition at 0.01 µM of 45.8%.

In the case of `COc1ccccc1N1CCN(CCCCOc2cccc(Cn3nnc(C)n3)c2)CC1` [Example 26, 1-(2-Methoxy-phenyl)-4-{4-[3-(5-methyl-tetrazol-2-ylmethyl)-phenoxy]-butyl}-piperazine], the inhibition at 0.01 µM came to 47%.

Take `COc1ccccc1N1CCN(CCCCOc2cccc(Cn3cncn3)c2)CC1` [Example 6, 1-(2-methoxy-phenyl)-4-[4-(3-[1,2,4]triazol-1-ylmethyl-phenoxy)-butyl]-piperazine hydrochloride]: at 0.01 µM the inhibition was 50.1%.
